The record followed here is US4981842A, “Method of treating hormonal dependent mammary tumors in female mammals” (Roussel Uclaf, priority 1979, dated 1991).

For experiment [1], the system named is ovarian steroidogenesis. Nature of the experiment: Inhibitory activity on ovarian steroidogenesis in women. The experiment is classed as in vivo. On the procedure: The inhibitory activity of [D Ser (tbu)^6 xdes Gly NH2^10 ]LH-RH ethylamide on ovarian steroidogenosis in women was determined on 6 women aged 26 to 35 years with normal and regular menstrual cycles and without prior endocrinal or gynecological problems. The study was conducted for 6 consecutive cycles consisting of 2 pretreatment cycles, 2 treatment cycles and 2 post-treatment cycles. Two drops of a solution containing 500 μg of [D Ser (tbu)^6 xdes Gly NH2^10 ] LH-RH ethylamide were deposited on each nostril at 8 A.M. and 5 P.M. of a day between the 4th and 9th day after the peak of LH-day 0. Daily blood samples were taken between 4 and 6 P.M. to measure seric levels of LH, FSH, progesterone and estradiol which were determined by radioimmuno-logictests with double antibodies. The antibodies to measure LH and FSH were furnished by the National Pituitory Agency of N.I.H. of Bethesda, Md.
Estradiol and progesterone were measured with highly specific antibodies developed against 7-(O-carboxymethyl)oxime of estradiol and 12-(O-carboxymethyl)-oxime of progesterone, respectively [3H] 17β-estradiol and ^125 I-progesterone -12-[O-carboxymethyl)-oxime]used as tracers. The serum was extracted with benzene and the steroids were separated with a LH-20 column before the determination. The radioimmunological results were exploited by the program derived from model II of Rodbard and Lewald as in Example 1 and the statistical significance was measured by the multiple level test of Ducan-Kramer of Example 1. The results are shown in the graphs of sheets 3 to 5 of the Figures.

Experiment [2] relates to testicular steroidogenesis. Nature of the experiment: Inhibitory activity on testicular steroidogenesis in a patient with prostate cancer. The experiment is classed as in vivo, human. Particulars: intranasal 500 μg twice a day. An excerpt: The results are reported in the graphs of sheet 2 of the Figures.
The test system of experiment [3] is prostate and seminal vesicules. Nature of the experiment: Peptide in association with an antiandrogen: weight of prostate and seminal vesicles in rats. The experiment is classed as in vivo, rats of the Sprague-Dawley strain. To be noted: 14 days, 100 or 500 μg peptide s.c. plus 5 mg product A twice daily.
Method: The effect of the administration of [D Ser (tbu)^6 des Gly NH2^10 ] LH-RH ethylamide in association with an antiandrogen was determined on groups of 9 normal rats of the Sprague-Dawley strain weighing about 250 g. The rats received for 14 days a subcutaneous administration at 9 A.M. of D Ser(Tbu)^6 of Gly^10 LH-RH ethylamide at a dose of 20, 100 or 500 μg in physiological serum and at 9 A.M. and 4 P.M. doses of 1 or 5 mg of 5,5-dimethyl-3-[4-nitro-3-trifluoromethyl-phenyl]-2,4-imidazolidinedione (product A) in solution in seasame oil containing 5% of benzyl alcohol. One group of rats received only physiological serum and one group received only product A.
The animals were killed 24 hours after the last injection and the weight of the prostate and seminal vesicules of the rats were determined.
The test system of experiment [4] is testicular steroidogenesis. Nature of the experiment: Inhibitory activity against testicular steroidogenesis in men in good health, single intranasal dose. The experiment is classed as in vivo. To be noted: for seric level of testosterone/steroids on the fourth day after administration: fourth day (until 6th day). On the procedure:
The inhibitory activity of [D Ser (tbu)^6 xdes Gly NH2^10 ]LH-RH ethylamide (described in German application Ser. No. 2,438,350) against testicular steroidogensis in men in good health was determined on men in good health aged 30 to 40 years. The said product was administered intranasally at a dose of 500 μg in a few drops of distilled water at 8 A.M. on the third day of the test. For 2 days prior to the treatment and for 6 days after the treatment, samples of blood were taken daily at 8 A.M., 3 P.M. and 10 P.M. On the day of administration of the LH-RH agonist, blood samples were taken at 11 A.M. and 6 P.M.
The seric concentrations of LH and FSH were measured by radioimmuno-logic dosages with double antibodies and the antiboides for measuring LH and FSH were furnished by the National Pituitary Agency of N.I.H. in Bethesda, Md. The seric concentrations of steroids was measured by radioimmuno-logic dosages in which one ml of serum was extracted with ether and the steroids were separated on a LH-20 column before measuring with radioimmuno-logic dosages. The radioimmuno-logic dosage results were determined by a program derived from model II of Rodbard et al [Second Karolinska Symposium on Research Methods in Reproductive Endroerinology, Diczfalusky Editer, Copenhague (1970), pp. 79-103]. The statistical significance was determined by the "multiple level test" of Duncan-Kramer [Kramer, Biometrics, vol. 12 (1956), p. 307]. The results are shown in the graphs on sheet 1 of the Figures filed herewith.

[5] abbreviates: intranasal 500 μg at 8 A.M. and 5 P.M. of one day in luteal phase, typical subject (sheet 3).
The mark [6] stands for this setting: intranasal 500 μg, 3rd day following administration.

With `CCNC(=O)[C@@H]1CCCN1C(=O)[C@H](CCCNC(=N)N)NC(=O)[C@H](CC(C)C)NC(=O)[C@@H](COC(C)(C)C)NC(=O)[C@H](Cc1ccc(O)cc1)NC(=O)[C@H](CO)NC(=O)[C@H](Cc1c[nH]c2ccccc12)NC(=O)[C@H](Cc1c[nH]cn1)NC(=O)[C@@H]1CCC(=O)N1` [[D Ser (tbu)^6 xdes Gly NH2^10] LH-RH ethylamide], the “reduction of the level of progesterone as compared to the controls” value in experiment [1] (12 cycles of treatment (sheet 5)) is reported as 46%. Further, in experiment [1] (12 cycles, 6 women), the “progesterone level in cycles of post-treatment, pretreatment cycles as base of 100%” value is recorded as 99% and the “progesterone level in cycles of treatment, pretreatment cycles as base of 100%” value came to 46%. For the same compound, in experiment [1] (setting [5]), the “reduction of seric levels of progesterone compared to controls, first cycle of treatment” value was found to be 13% and the “reduction of seric levels of progesterone compared to controls, second cycle of treatment” value amounted to 34%. In experiment [1] (return to normal for the 2 cycles of post-treatment), the “level of seric progesterone over the 2 cycles of treatment (sheet 4)” value is “accelerated diminution”. The “level of androgenic steroids (plasma)” value in experiment [2] is listed as “diminution”. In addition, in experiment [2] (two weeks of treatment), the “level of testosterone (plasma)” value is “stabilized at a very low level”. In addition, in experiment [3], the “weight of the prostate” value is recorded as “Similar, but a little less marked” and the “weight of the seminal vesicules” value was “approached the weight of the seminal vesicules of castrated rats”. In addition, in experiment [4] (setting [6]), the “concentration of 17-OH-progesterone relative to initial control values” stood at 40% and the “concentration of testosterone relative to initial control values” is reported as 50%. In addition, in experiment [4] (intranasal 500 μg, day of treatment), the “seric concentration of pregnenolone, 17-OH-pregnenolone, progesterone, 17-OH-progesterone, Δ5-androstene-3β,17β-diol and testosterone on the day of treatment” value is on record as “increased”. The “plasmatic levels of LH and FSH” value in experiment [4] (intranasal 500 μg, men) was “increase”. Also, the “seric level of testosterone/steroids on the fourth day after administration” value in experiment [4] (single intranasal dose 500 μg) is recorded as “returned to normal”. For the same compound, in experiment [4] (single intranasal dose 500 μg, listed as peptide), the “seric level of testosterone/steroids on the fourth day after administration” value was “return to normal levels”. Moreover, the “duration of the drop of seric levels of testicular steroids (testosterone and its precursors)” value in experiment [4] (single intranasal dose 500 μg, human) was 3 days. The “diminution of the level of testosterone” value in experiment [4] (single intranasal dose 500 μg, human, 3rd day following administration) came to 50%.
